According to patent US9238656B2, “Imidazo[4,5-b]pyridine derivatives as ALK and JAK modulators for the treatment of proliferative disorders” (priority 2012, dated 2016):
Counter-ions that a name gives are not always drawn.

Columns and labels:
[1] = molecular target: baculovirus-expressed JAK2 kinase (Homo sapiens, UniProt O60674); assay: biochemical; settings: 0.2 μM ATP; read-out: JAK2 Potency
In short: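 IC50 derived by variable-slope sigmoidal fit of percent inhibition against log compound concentration. Baculovirus-expressed JAK2 (15 ng/mL) phosphorylated a plate-bound biotinylated 15-mer peptide for 20 min at room temperature; detection by time-resolved fluorescence.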

[2] = molecular target: baculovirus-expressed ALK (Homo sapiens, UniProt Q9UM73); assay: ALK kinase inhibition, TRF/ELISA; type: biochemical; settings: read-out: ALK Potency
baculovirus-expressed ALK, sequence (Q9UM73 19-1620): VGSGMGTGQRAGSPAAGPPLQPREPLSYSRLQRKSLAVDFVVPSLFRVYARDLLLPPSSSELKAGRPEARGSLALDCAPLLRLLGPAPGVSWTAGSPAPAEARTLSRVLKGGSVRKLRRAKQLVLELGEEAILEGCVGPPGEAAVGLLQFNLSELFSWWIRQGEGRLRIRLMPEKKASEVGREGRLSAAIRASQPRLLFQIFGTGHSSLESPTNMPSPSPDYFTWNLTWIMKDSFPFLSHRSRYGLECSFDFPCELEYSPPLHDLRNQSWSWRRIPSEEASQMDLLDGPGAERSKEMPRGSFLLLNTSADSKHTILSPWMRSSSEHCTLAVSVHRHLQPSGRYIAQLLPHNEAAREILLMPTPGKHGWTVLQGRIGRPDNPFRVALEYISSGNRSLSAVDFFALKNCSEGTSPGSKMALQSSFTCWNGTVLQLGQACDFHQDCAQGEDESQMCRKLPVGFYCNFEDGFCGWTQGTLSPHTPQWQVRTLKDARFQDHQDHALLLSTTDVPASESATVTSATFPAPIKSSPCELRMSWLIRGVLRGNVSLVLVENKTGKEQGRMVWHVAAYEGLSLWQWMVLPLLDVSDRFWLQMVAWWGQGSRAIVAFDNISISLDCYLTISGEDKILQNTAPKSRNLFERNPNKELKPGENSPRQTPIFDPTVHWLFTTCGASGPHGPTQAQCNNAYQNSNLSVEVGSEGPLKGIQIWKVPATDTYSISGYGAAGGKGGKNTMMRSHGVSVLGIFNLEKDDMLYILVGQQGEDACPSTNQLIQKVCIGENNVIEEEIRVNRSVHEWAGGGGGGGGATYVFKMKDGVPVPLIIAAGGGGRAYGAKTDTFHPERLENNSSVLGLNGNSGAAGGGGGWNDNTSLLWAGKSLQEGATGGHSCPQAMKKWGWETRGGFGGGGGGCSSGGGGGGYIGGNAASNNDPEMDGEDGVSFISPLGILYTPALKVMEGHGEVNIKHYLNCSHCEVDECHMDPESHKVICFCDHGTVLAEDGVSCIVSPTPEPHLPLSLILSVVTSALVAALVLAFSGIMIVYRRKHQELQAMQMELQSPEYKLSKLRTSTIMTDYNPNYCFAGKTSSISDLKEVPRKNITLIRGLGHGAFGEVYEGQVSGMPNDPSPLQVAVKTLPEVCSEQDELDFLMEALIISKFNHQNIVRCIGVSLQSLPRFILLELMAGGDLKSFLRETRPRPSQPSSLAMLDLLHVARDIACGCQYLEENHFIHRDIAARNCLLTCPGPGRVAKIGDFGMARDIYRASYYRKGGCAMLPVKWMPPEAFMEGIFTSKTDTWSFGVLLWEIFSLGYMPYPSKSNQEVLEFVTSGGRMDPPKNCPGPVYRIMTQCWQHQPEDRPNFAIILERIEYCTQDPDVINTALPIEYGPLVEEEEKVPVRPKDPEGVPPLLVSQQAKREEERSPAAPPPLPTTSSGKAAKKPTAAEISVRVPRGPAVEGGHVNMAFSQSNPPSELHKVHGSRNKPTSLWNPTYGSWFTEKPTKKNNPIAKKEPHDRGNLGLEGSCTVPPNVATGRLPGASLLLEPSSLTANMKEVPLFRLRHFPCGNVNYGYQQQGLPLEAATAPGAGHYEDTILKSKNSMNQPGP
In short: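 Eu-PT66 anti-phosphotyrosine TRF read-out measured phosphorylation of plate-bound GST-PLC-γ (coated at 10 μg/mL). The phosphorylation was driven by 30 ng/mL ALK for 15 minutes at 37° C.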

baculovirus-expressed JAK2 kinase, sequence (O60674 whole entry): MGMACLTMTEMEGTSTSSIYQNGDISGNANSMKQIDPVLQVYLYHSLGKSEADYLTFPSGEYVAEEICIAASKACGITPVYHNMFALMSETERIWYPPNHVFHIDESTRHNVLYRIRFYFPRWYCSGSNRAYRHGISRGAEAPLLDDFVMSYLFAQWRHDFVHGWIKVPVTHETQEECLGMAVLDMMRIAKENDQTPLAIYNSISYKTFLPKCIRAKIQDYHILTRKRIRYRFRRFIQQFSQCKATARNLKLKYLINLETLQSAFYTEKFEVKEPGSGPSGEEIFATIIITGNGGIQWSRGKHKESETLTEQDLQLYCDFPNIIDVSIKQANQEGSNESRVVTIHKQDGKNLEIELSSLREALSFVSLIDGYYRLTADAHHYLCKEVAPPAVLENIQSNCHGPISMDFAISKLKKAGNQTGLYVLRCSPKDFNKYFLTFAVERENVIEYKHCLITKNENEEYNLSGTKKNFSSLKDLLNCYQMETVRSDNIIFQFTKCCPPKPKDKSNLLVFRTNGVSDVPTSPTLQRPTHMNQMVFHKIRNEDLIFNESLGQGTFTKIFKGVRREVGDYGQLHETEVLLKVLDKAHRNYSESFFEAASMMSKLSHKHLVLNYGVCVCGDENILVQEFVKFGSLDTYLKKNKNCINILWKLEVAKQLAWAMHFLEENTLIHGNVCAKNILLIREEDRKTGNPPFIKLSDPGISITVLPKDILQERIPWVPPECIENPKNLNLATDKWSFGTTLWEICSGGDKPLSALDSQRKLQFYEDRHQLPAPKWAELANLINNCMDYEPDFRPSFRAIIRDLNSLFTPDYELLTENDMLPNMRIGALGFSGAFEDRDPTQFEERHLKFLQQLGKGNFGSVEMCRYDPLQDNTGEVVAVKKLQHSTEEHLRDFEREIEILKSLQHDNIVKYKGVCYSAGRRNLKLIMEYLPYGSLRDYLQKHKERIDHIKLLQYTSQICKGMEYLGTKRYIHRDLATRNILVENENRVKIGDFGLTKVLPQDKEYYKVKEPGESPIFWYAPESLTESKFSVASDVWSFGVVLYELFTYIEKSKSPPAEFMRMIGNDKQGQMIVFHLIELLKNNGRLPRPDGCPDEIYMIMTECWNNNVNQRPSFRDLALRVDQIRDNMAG

NC(=O)[C@@H]1[C@H](Nc2c(Br)cnc3[nH]c(-c4ccc(F)cc4)nc23)[C@H]2C=C[C@@H]1C2 [Compound CXXXIII, (1S,2S,3R,4R)-3-[6-Bromo-2-(4-fluoro-phenyl)-3H-imidazo[4,5-b]pyridin-7-ylamino]-bicyclo[2.2.1]hept-5-ene-2-carboxylic acid amide]
IC50 [1]: < 100 nM
IC50 [2]: 100 to 1000 nM

NC(=O)[C@@H]1[C@H](Nc2c(Br)cnc3[nH]c(-c4ccc(N5CCOCC5)cc4Cl)nc23)[C@H]2C=C[C@@H]1C2 [Compound CXXXIV, (1S,2S,3R,4R)-3-[6-Bromo-2-(2-chloro-4-morpholin-4-yl-phenyl)-3H-imidazo[4,5-b]pyridin-7-ylamino]-bicyclo[2.2.1]hept-5-ene-2-carboxylic acid amide]
IC50 [1]: < 100 nM
IC50 [2]: < 100 nM

NC(=O)[C@@H]1[C@H](Nc2c(Br)cnc3[nH]c(-c4ccc(C(F)(F)F)nc4)nc23)[C@H]2C=C[C@@H]1C2 [Compound CXXXIX, (1S,2S,3R,4R)-3-[6-Bromo-2-(6-trifluoromethyl-pyridin-3-yl)-3H-imidazo[4,5-b]pyridin-7-ylamino]-bicyclo[2.2.1]hept-5-ene-2-carboxylic acid amide]
IC50 [1]: < 100 nM
IC50 [2]: 1000 to 10000 nM

NC(=O)[C@@H]1[C@H](Nc2c(Br)cnc3[nH]c(-c4ccc(N5CCOCC5)c(Cl)c4)nc23)[C@H]2C=C[C@@H]1C2 [Compound CXXXV, (1S,2S,3R,4R)-3-[6-Bromo-2-(3-chloro-4-morpholin-4-yl-phenyl)-3H-imidazo[4,5-b]pyridin-7-ylamino]-bicyclo[2.2.1]hept-5-ene-2-carboxylic acid amide]
IC50 [1]: < 100 nM
IC50 [2]: 100 to 1000 nM

NC(=O)[C@@H]1[C@H](Nc2c(Br)cnc3[nH]c(-c4ccnc(N5CCOCC5)c4)nc23)[C@H]2C=C[C@@H]1C2 [Compound CXXXVI, (1S,2S,3R,4R)-3-[6-Bromo-2-(2-morpholin-4-yl-pyridin-4-yl)-3H-imidazo[4,5-b]pyridin-7-ylamino]-bicyclo[2.2.1]hept-5-ene-2-carboxylic acid amide]
IC50 [1]: < 100 nM
IC50 [2]: 100 to 1000 nM

NC(=O)[C@@H]1[C@H](Nc2c(Cl)cnc3[nH]c(-c4ccc(N5CCOCC5)c(Cl)c4)nc23)[C@H]2C=C[C@@H]1C2 [Compound CXXXVII, (1S,2S,3R,4R)-3-[6-Chloro-2-(3-chloro-4-morpholin-4-yl-phenyl)-3H-imidazo[4,5-b]pyridin-7-ylamino]-bicyclo[2.2.1]hept-5-ene-2-carboxylic acid amide]
IC50 [1]: < 100 nM
IC50 [2]: 100 to 1000 nM

CN(C)c1ccc(-c2nc3c(N[C@H]4[C@@H](C(N)=O)[C@@H]5C=C[C@H]4C5)c(Cl)cnc3[nH]2)cc1 [Compound I, (1S,2S,3R,4R)-3-[6-Chloro-2-(4-dimethylamino-phenyl)-3H-imidazo[4,5-b]pyridin-7-ylamino]-bicyclo[2.2.1]hept-5-ene-2-carboxylic acid amide]
IC50 [1]: < 100 nM
IC50 [2]: < 100 nM

NC(=O)[C@@H]1[C@H](Nc2c(Cl)cnc3[nH]c(-c4ccc(CN5CCOCC5)cc4)nc23)[C@H]2C=C[C@@H]1C2 [Compound III, (1S,2S,3R,4R)-3-[6-Chloro-2-(4-morpholin-4-ylmethyl-phenyl)-3H-imidazo[4,5-b]pyridine-7-ylamino]-bicyclo[2.2.1]hept-5-ene-2-carboxylic acid amide-trifluoroacetate salt]
IC50 [1]: < 100 nM
IC50 [2]: < 100 nM

CC(C)(C)OC(=O)N1CCC(n2cc(-c3nc4c(N[C@H]5[C@@H](C(N)=O)[C@@H]6C=C[C@H]5C6)c(Cl)cnc4[nH]3)cn2)CC1 [Compound L, 4-{4-[7-((1R,2R,3S,4S)-3-Carbamoyl-bicyclo[2.2.1]hept-5-en-2-ylamino)-6-chloro-3H-imidazo[4,5-b]pyridine-2-yl]-pyrazol-1-yl}-piperidine-1-carboxylic acid tert-butyl ester]
IC50 [1]: < 100 nM
IC50 [2]: 100 to 1000 nM

COc1cc(CN2CCOCC2)ccc1-c1nc2c(N[C@H]3[C@@H](CO)[C@@H]4C=C[C@H]3C4)c(Cl)cnc2[nH]1 [Compound LII, {(diexo)-3-[6-Chloro-2-(2-methoxy-4-morpholin-4-ylmethylphenyl)-3H-imidazo[4,5-b]pyridine-7-ylamino]-bicyclo[2.2.1]hept-5-en-2-yl}-methanol]
IC50 [1]: 100 to 1000 nM
IC50 [2]: < 100 nM

C[C@H](O)CN1CCC(n2cc(-c3nc4c(N[C@H]5[C@@H](C(N)=O)[C@@H]6C=C[C@H]5C6)c(Cl)cnc4[nH]3)cn2)CC1 [Compound LIX, (1S,2S,3R,4R)-3-(6-Chloro-2-{1-[1((S)-2-hydroxypropyl)-piperidin-4-yl]-1H-pyrazol-4-yl}-3H-imidazo[4,5-b]pyridine-7-ylamino)-bicyclo[2.2.1]hept-5-ene-2-carboxylic acid amide]
IC50 [1]: < 100 nM
IC50 [2]: < 100 nM

C[C@@H](O)CN1CCC(n2cc(-c3nc4c(N[C@H]5[C@@H](C(N)=O)[C@@H]6C=C[C@H]5C6)c(Cl)cnc4[nH]3)cn2)CC1 [Compound LVIII, (1S,2S,3R,4R)-3-(6-Chloro-2-{1-[1-((R)-2-hydroxypropyl)-piperidin-4-yl]-1H-pyrazol-4-yl}-3H-imidazo[4,5-b]pyridine-7-ylamino)-bicyclo[2.2.1]hept-5-ene-2-carboxylic acid amide]
IC50 [1]: < 100 nM
IC50 [2]: < 100 nM

COC[C@H](O)CN1CCC(n2cc(-c3nc4c(N[C@H]5[C@@H](C(N)=O)[C@@H]6C=C[C@H]5C6)c(Cl)cnc4[nH]3)cn2)CC1 [Compound LX, (1S,2S,3R,4R)-3-(6-Chloro-2-{1-[1-((R)-2-hydroxy-3-methoxy-propyl)-piperidin-4-yl]-1H-pyrazol-4-yl}-3H-imidazo[4,5-b]pyridine-7-ylamino)-bicyclo[2.2.1]hept-5-ene-2-carboxylic acid amide]
IC50 [1]: < 100 nM
IC50 [2]: < 100 nM

CC(=O)N1CCC(n2cc(-c3nc4c(N[C@H]5[C@@H](C(N)=O)[C@@H]6C=C[C@H]5C6)c(Cl)cnc4[nH]3)cn2)CC1 [Compound LXI, (1S,2S,3R,4R)-3-{2-[1-(1-Acetyl-piperidin-4-yl)-1H-pyrazol-4-yl]-6-chloro-3H-imidazo[4,5-b]pyridine-7-ylamino}-bicyclo[2.2.1]hept-5-ene-2-carboxylic acid amide]
IC50 [1]: < 100 nM
IC50 [2]: 100 to 1000 nM

CCNC(=O)N1CCC(n2cc(-c3nc4c(N[C@H]5[C@@H](C(N)=O)[C@@H]6C=C[C@H]5C6)c(Cl)cnc4[nH]3)cn2)CC1 [Compound LXII, 4-{4-[7-((1R,2R,3S,4S)-3-Carbamoyl-bicyclo[2.2.1]hept-5-ene-2-ylamino)-6-chloro-3H-imidazo[4,5-b]pyridine-2-yl]-pyrazol-1-yl)-piperidine-1-carboxylic acid ethylamide]
IC50 [1]: < 100 nM
IC50 [2]: < 100 nM

COc1cc(C(=O)N2CCOCC2)ccc1-c1nc2c(N[C@H]3[C@@H](C(N)=O)[C@@H]4C=C[C@H]3C4)c(Cl)cnc2[nH]1 [Compound LXIII, (1S,2S,3R,4R)-3-{6-Chloro-2-[2-methoxy-4-(morpholine-4-carbonyl)-phenyl]-3H-imidazo[4,5-b]pyridine-7-ylamino}-bicyclo[2.2.1]hept-5-ene-2-carboxylic acid amide]
IC50 [1]: < 100 nM
IC50 [2]: < 100 nM

Cc1nc(C2CCNCC2)sc1-c1nc2c(N[C@H]3[C@@H](C(N)=O)[C@@H]4C=C[C@H]3C4)c(Cl)cnc2[nH]1 [Compound LXIV, (1S,2S,3R,4R)-3-[6-Chloro-2-(4-methyl-2-piperidin-4-yl-thiazol-5-yl)-3H-imidazo[4,5-b]pyridine-7-ylamino]-bicyclo[2.2.1]hept-5-ene-2-carboxylic acid amide]
IC50 [1]: < 100 nM
IC50 [2]: < 100 nM

COc1cc(CN2CCOCC2)ccc1Nc1nc2c(N[C@H]3[C@@H](C(N)=O)[C@@H]4C=C[C@H]3C4)c(Cl)cnc2[nH]1 [Compound LXIX, (1S,2S,3R,4R)-3-[6-Chloro-2-(2-methoxy-4-morpholin-4-ylmethyl-phenylamino)-3H-imidazo[4,5-b]pyridine-7-ylamino]-bicyclo[2.2.1]hept-5-ene-2-carboxylic acid amide]
IC50 [1]: < 100 nM
IC50 [2]: < 100 nM

Cc1nc(C2CCN(CC(N)=O)CC2)sc1-c1nc2c(N[C@H]3[C@@H](C(N)=O)[C@@H]4C=C[C@H]3C4)c(Cl)cnc2[nH]1 [Compound LXV, (1S,2S,3R,4R)-3-{2-[2-(1-Carbamoylmethyl-piperidin-4-yl)-4-methyljj-thiazol-5-yl]-6-chloro-3H-imidazo[4,5-b]pyridine-7-ylamino}-bicyclo[2.2.1]hept-5-ene-2-carboxylic acid amide]
IC50 [1]: < 100 nM
IC50 [2]: < 100 nM

NC(=O)CN1CCC(n2cc(-c3nc4c(N[C@H]5[C@@H](C(N)=O)[C@@H]6C=C[C@H]5C6)c(Cl)cnc4[nH]3)cn2)CC1 [Compound LXVI, (1S,2S,3R,4R)-3-{2-[1-(1-Carbamoylmethyl-piperidin-4-yl)-1H-pyrazol-4-yl]-6-chloro-3H-imidazo[4,5-b]pyridine-7-ylamino}-bicyclo[2.2.1]hept-5-ene-2-carboxylic acid amide, trifluoroacetic acid salt]
IC50 [1]: < 100 nM
IC50 [2]: 100 to 1000 nM

NC(=O)[C@@H]1[C@H](Nc2c(Cl)cnc3[nH]c(Nc4ccccc4)nc23)[C@H]2C=C[C@@H]1C2 [Compound LXVII, (1S,2S,3R,4R)-3-(6-Chloro-2-phenylamino-3H-imidazo[4,5-b]pyridine-7-ylamino)-bicyclo[2.2.1]hept-5-ene-2-carboxylic acid amide]
IC50 [1]: < 100 nM
IC50 [2]: 100 to 1000 nM

COc1ccccc1Nc1nc2c(N[C@H]3[C@@H](C(N)=O)[C@@H]4C=C[C@H]3C4)c(Cl)cnc2[nH]1 [Compound LXVIII, (1S,2S,3R,4R)-3-[6-Chloro-2-(2-methoxy-phenylamino)-3H-imidazo[4,5-b]pyridine-7-ylamino]-bicyclo[2.2.1]hept-5-ene-2-carboxylic acid amide]
IC50 [1]: < 100 nM
IC50 [2]: 100 to 1000 nM
